# Data: ChEMBL document CHEMBL4359830, “Discovery and structure-activity relationship of novel diphenylthiazole derivatives as BTK inhibitor with potent activity against B cell lymphoma cell lines” (Eur J Med Chem, 2019)
# Key:
# Raji [1] = assay: Induction of apoptosis in human Raji cells assessed as necrotic cells at 0.1 uM measured after 15 mins by Annexin-V-APC staining-based flow cytometric analysis (reference value: 1.87 %); assay type: functional
# Ramos [2] = assay: Induction of apoptosis in human Ramos cells assessed as necrotic cells at 0.1 uM measured after 15 mins by Annexin-V-APC staining-based flow cytometric analysis (reference value: 1.50 %); assay type: functional
# Raji [3] = assay: Cell cycle arrest in human Raji cells assessed as accumulation at G2/M phase at 1 uM measured after 48 hrs by propidium iodide/RNase staining based flow cytometric analysis (reference value: 18.14 %); assay type: functional
# Raji [4] = assay: Cell cycle arrest in human Raji cells assessed as accumulation at G2/M phase at 5 uM measured after 48 hrs by propidium iodide/RNase staining based flow cytometric analysis (reference value: 18.14 %); assay type: functional
# Ramos [5] = assay: Cell cycle arrest in human Ramos cells assessed as accumulation at G2/M phase at 1 uM measured after 48 hrs by propidium iodide/RNase staining based flow cytometric analysis (reference value: 5.98 %); assay type: functional
# Ramos [6] = assay: Cell cycle arrest in human Ramos cells assessed as accumulation at G0/G1 phase at 1 uM measured after 48 hrs by propidium iodide/RNase staining based flow cytometric analysis (reference value: 37.66 %); assay type: functional
# Raji [7] = assay: Induction of apoptosis in human Raji cells assessed as viable cells at 0.1 uM measured after 15 mins by Annexin-V-APC staining-based flow cytometric analysis (reference value: 97.5 %); assay type: functional; details: 0.25 h, read-out: Activity
# Ramos [8] = assay: Induction of apoptosis in human Ramos cells assessed as viable cells at 5 uM measured after 15 mins by Annexin-V-APC staining-based flow cytometric analysis (reference value: 96.5 %); assay type: functional; details: Homo sapiens, Ramos, 0.25 h; read-out: Activity
# Raji [9] = assay: Cell cycle arrest in human Raji cells assessed as accumulation at S phase at 5 uM measured after 48 hrs by propidium iodide/RNase staining based flow cytometric analysis (reference value: 33.18 %); assay type: functional
# Raji [10] = assay: Cell cycle arrest in human Raji cells assessed as accumulation at S phase at 0.1 uM measured after 48 hrs by propidium iodide/RNase staining based flow cytometric analysis (reference value: 33.18 %); assay type: functional
# Raji [11] = assay: Induction of apoptosis in human Raji cells assessed as necrotic cells at 1 uM measured after 15 mins by Annexin-V-APC staining-based flow cytometric analysis (reference value: 1.87 %); assay type: functional
# Ramos [12] = assay: Induction of apoptosis in human Ramos cells assessed as viable cells at 1 uM measured after 15 mins by Annexin-V-APC staining-based flow cytometric analysis (reference value: 96.5 %); assay type: functional; details: 0.25 h, read-out: Activity
# Raji [13] = assay: Induction of apoptosis in human Raji cells assessed as viable cells at 5 uM measured after 15 mins by Annexin-V-APC staining-based flow cytometric analysis (reference value: 97.5 %); assay type: functional; details: Homo sapiens, Raji, 0.25 h; read-out: Activity
# Ramos [14] = assay: Induction of apoptosis in human Ramos cells assessed as necrotic cells at 5 uM measured after 15 mins by Annexin-V-APC staining-based flow cytometric analysis (reference value: 1.50 %); assay type: functional
# [15] = molecular target: Tyrosine-protein kinase BTK (Homo sapiens, UniProt Q06187, C481S); assay: Inhibition of human recombinant full length N-terminal His tagged BTK C481S mutant expressed in baculovirus infected Sf9 cells using poly (Glu,Tyr) 4:1 as substrate measured after 60 mins in presence of ATP by ADP-Glo kinase assay
# Chain of Tyrosine-protein kinase BTK (Q06187 2-659 C481S limits assumed): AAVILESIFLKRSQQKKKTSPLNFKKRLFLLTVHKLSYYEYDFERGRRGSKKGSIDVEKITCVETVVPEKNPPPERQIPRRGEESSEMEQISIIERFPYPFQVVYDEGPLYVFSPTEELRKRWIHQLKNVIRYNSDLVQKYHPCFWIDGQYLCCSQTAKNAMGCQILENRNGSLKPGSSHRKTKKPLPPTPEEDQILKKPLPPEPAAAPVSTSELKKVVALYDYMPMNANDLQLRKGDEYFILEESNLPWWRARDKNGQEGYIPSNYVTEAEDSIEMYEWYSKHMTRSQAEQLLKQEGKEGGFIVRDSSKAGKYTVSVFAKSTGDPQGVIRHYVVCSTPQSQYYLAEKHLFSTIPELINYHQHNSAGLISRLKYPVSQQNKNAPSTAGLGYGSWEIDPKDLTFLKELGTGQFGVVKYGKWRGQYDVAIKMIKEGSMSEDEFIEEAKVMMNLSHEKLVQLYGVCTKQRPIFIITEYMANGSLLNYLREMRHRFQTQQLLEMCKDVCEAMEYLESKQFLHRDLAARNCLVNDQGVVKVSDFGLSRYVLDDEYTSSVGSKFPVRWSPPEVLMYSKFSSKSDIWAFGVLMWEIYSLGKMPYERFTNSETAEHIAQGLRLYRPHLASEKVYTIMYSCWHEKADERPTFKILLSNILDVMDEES
# Ramos [16] = assay: Cell cycle arrest in human Ramos cells assessed as accumulation at G2/M phase at 5 uM measured after 48 hrs by propidium iodide/RNase staining based flow cytometric analysis (reference value: 5.98 %); assay type: functional
# Raji [17] = assay: Induction of apoptosis in human Raji cells assessed as late apoptotic cells at 0.1 uM measured after 15 mins by Annexin-V-APC staining-based flow cytometric analysis (reference value: 0.57 %); assay type: functional
# Ramos [18] = assay: Induction of apoptosis in human Ramos cells assessed as viable cells at 0.1 uM measured after 15 mins by Annexin-V-APC staining-based flow cytometric analysis (reference value: 96.5 %); assay type: functional; details: 0.25 h, read-out: Activity
# Raji [19] = assay: Induction of apoptosis in human Raji cells assessed as late apoptotic cells at 5 uM measured after 15 mins by Annexin-V-APC staining-based flow cytometric analysis (reference value: 0.57 %); assay type: functional
# Raji [20] = assay: Cell cycle arrest in human Raji cells assessed as accumulation at G0/G1 phase at 0.1 uM measured after 48 hrs by propidium iodide/RNase staining based flow cytometric analysis (reference value: 48.68 %); assay type: functional
# Raji [21] = assay: Cell cycle arrest in human Raji cells assessed as accumulation at G2/M phase at 0.1 uM measured after 48 hrs by propidium iodide/RNase staining based flow cytometric analysis (reference value: 18.14 %); assay type: functional
# Ramos [22] = assay: Induction of apoptosis in human Ramos cells assessed as necrotic cells at 1 uM measured after 15 mins by Annexin-V-APC staining-based flow cytometric analysis (reference value: 1.50 %); assay type: functional
# Ramos [23] = assay: Cell cycle arrest in human Ramos cells assessed as accumulation at G0/G1 phase at 0.1 uM measured after 48 hrs by propidium iodide/RNase staining based flow cytometric analysis (reference value: 37.66 %); assay type: functional
# Ramos [24] = assay: Induction of apoptosis in human Ramos cells assessed as late apoptotic cells at 0.1 uM measured after 15 mins by Annexin-V-APC staining-based flow cytometric analysis (reference value: 1.85 %); assay type: functional
# Raji [25] = assay: Induction of apoptosis in human Raji cells assessed as viable cells at 3 uM measured after 15 mins by Annexin-V-APC staining-based flow cytometric analysis (reference value: 97.5 %); assay type: functional; details: 0.25 h, read-out: Activity
# Raji [26] = assay: Induction of apoptosis in human Raji cells assessed as early apoptotic cells at 1 uM measured after 15 mins by Annexin-V-APC staining-based flow cytometric analysis (reference value: 0.021 %); assay type: functional
compound,measurement,setting,value
CN1CCN(c2ccc(Nc3nc(-c4cccc(NC(=O)c5ccc(F)c(Cl)c5)c4)sc3C(N)=O)cc2)CC1,Activity,Raji [1],1.76%
same,Activity,Ramos [2],1.61%
same,Activity,Raji [3],24.53%
same,Activity,Raji [4],16.19%
same,Activity,Ramos [5],11.39%
same,Activity,Ramos [6],55.48%
same,viability at 0.1 µM,Raji [7],97.8%
same,viability at 5 µM,Ramos [8],1.55%
same,Activity,Raji [9],1.26%
same,Activity,Raji [10],33.63%
same,Activity,Raji [11],1.88%
same,viability at 1 µM,Ramos [12],95.7%
same,viability at 5 µM,Raji [13],0.15%
same,Activity,Ramos [14],25.7%
same,IC50,[15],61 nM
same,Activity,Ramos [16],2.17%
same,Activity,Raji [17],0.44%
same,viability at 0.1 µM,Ramos [18],96.4%
same,Activity,Raji [19],67.7%
same,Activity,Raji [20],47.04%
same,Activity,Raji [21],19.33%
same,Activity,Ramos [22],2.04%
same,Activity,Ramos [23],40.13%
same,Activity,Ramos [24],1.88%
same,viability at 3 µM,Raji [25],95.6%
same,Activity,Raji [26],0%
